# Laboratory results taken from patent US7351737B2, “4-[(8-substituted)-6-chromanoyl]-and 4-[8-substituted)-chroman-6-YL-ethynyl]-benzoic and phenylacetic acids, their esters and salts having cytochrome P450RAI inhibitory activity” (Allergan, Inc., priority 2002, dated 2008).
# System: skin of fuzzy rats
# Assay: Topical skin irritation test
# Type: in vivo, female fuzzy rats (Hsd:FUZZY-fz)
# Settings: 0.1% retinol alone, topical in acetone, daily Day 1-14; group average of erythema/eschar grade 0-4 (Table 2)
# Text: The topical retinoid all-trans-retinoic acid (ATRA) and oral retinoids such as 13-cis RA and etretinate are known to induce substantial skin irritation in humans. This irritation is a direct result of activation of the RAR nuclear receptors. Analysis of retinoid topical irritation is also a highly reproducable method of determining in vivo retinoid potency. The female fuzzy rats provide a convenient animal model of topical irritation, since retinoid-induced skin flaking and abrasion can be readily scored by eye, while their larger size than those of mice also allows multiple sampling of serum for clinical analyses. Topical application of P450RAI inhibitors should cause an increase in the endogenous levels of ATRA that would result in ATRA-induced irritation in skin of hairless mice. In these tests female fuzzy rats ((Hsd:FUZZY-fz), 6-7 weeks old, were obtained from Harlan Sprague-Dawley (Indianapolis, Ind.). The animals were about 8-9 weeks old at the start of the experiments. Food (Purina Rodent Chow 5001) and water purified by reverse osmosis were provided ad libitum. The rats were housed individually throughout the dosing period. Test chemicals were dissolved in acetone (vehicle) for application to the backs of the rats. Two days prior to actual administration of the test compounds, rats were handled daily and dosed with vehicle at a volume of 0.5 ml/kg. Starting on Day 1 thought Day 14 (dosing period), animals were dosed with the vehicle or compound(s) according to their group assignment. The rats in the tests were observed daily and the dorsal skin was graded for the degree of erythema/eschar and overall appearance. The scoring was in accordance with Table 2, below. [table] Daily group average was calculated by dividing the sum of the individual grade by the number of animals in each treatment group. The attached data in Table 3 indicates the retinoid-mimetic effects of some P450RAI inhibitors on the skin of fuzzy rats in the above described tests and in accordance with the above-indicated scoring.
smiles,measurement,value
"CC1=C(/C=C/C(C)=C/C=C/C(C)=C/CO)C(C)(C)CCC1 [retinol, reference compound]",Irritation Score on day 14,1
